{
  "source": "patent US6376526B1",
  "about": "“Triazole antifungal agents” (Pfizer Inc., priority 1996, dated 2002)",
  "key": {"Candida albicans": {"system": "Candida albicans", "assay": "in vivo activity against acute systemic candidosis in immune-normal mice", "conditions": "dose protecting 50% of mice on day 2 post-infection; mice infected i.v. with Candida albicans; oral dosing 1, 4 and 24 hours post-infection", "text": "The in vivo evaluation of the compounds can be carried out at a series of dose levels by intraperitoneal or intravenous injection, or by oral administration, to mice or rats which are inoculated with, e.g. a strain of Candida albicans, Aspergillus fumigatus or Cryptococcus neoformans. Activity may be based on the number of survivors from a treated group of mice after the death of an untreated group of mice.\nFor Candida spp. infection models the dose level at which the compound provides 50% protection against the lethal effect of the infection (PD50) is also assessed.\nThe Table below illustrates the in vivo activity against acute systemic candidosis in immune-normal mice for a selection of the compounds of the invention.\nMice were infected intravenously with Candida albicans in order to establish a systemic infection (all untreated control mice died by 2 days post-infection). Compound efficacy was assessed on the basis of survival after oral dosing (0.1-5 mg/kg; 1, 4 and 24 hours post-infection) and was measured as the dose protecting 50% of mice on day 2 post-infection."}, "[1]": {"assay": "7-day toxicity study in rats", "format": "in vivo", "conditions": "30 mg/kg p.o., o.d., 7 days"}},
  "data": [
    {"smiles": "C[C@@H](c1ccc(/C=C/n2ccnc2)cc1)[C@](O)(Cn1cncn1)c1ccc(F)cc1F", "note": "(relative stereo) [Example 5, Trans-(2R,3S/2S,3R)-1-(1,2,4-triazol-1-yl)-2-(2,4-difluorophenyl)-3-{4-[2-(imidazol-1-yl)ethenyl]phenyl}butan-2-ol]", "values": [
      {"measurement": "PD50", "setting": "Candida albicans", "value": 0.18, "unit": "mg/kg"}
    ]},
    {"smiles": "C[C@@H](c1ccc(/C=C/C(C)(C)O)cn1)[C@](O)(Cn1cncn1)c1ccc(F)cc1F", "note": "(relative stereo) [Example 9, Trans-(2R,3S/2S,3R)-1-(1,2,4-triazol-1-yl)-2-(2,4-difluorophenyl)-3-[5-{3-hydroxy-3-methylbut-1-en-1-yl}pyrid-2-yl]butan-2-ol]", "values": [
      {"measurement": "PD50", "setting": "Candida albicans", "value": 0.18, "unit": "mg/kg"}
    ]},
    {"smiles": "C[C@@H](c1ccc(/C=C/c2c[nH]nn2)cn1)[C@](O)(Cn1cncn1)c1ccc(F)cc1F", "note": "(relative stereo) [Example 10, Trans-(2R,3S/2S,3R)-1-(1,2,4-triazol-1-yl)-2-(2,4-difluorophenyl)-3-{5-[2-(1,2,3-triazol-4-yl)ethenyl]pyrid-2-yl}butan-2-ol]", "values": [
      {"measurement": "PD50", "setting": "Candida albicans", "value": 0.32, "unit": "mg/kg"}
    ]},
    {"smiles": "C[C@@H](c1ccc(/C=C/c2ccnn2C)cc1)[C@](O)(Cn1cncn1)c1ccc(F)cc1F", "note": "[Example 1, Trans-(2R,3S)-1-(1,2,4-triazol-1-yl)-2-(2,4-difluorophenyl)-3-{4-[2-(1methylpyrazol-5-yl)ethenyl]phenyl}butan-2-ol]", "values": [
      {"measurement": "adverse effects in 7-day toxicity study", "setting": "[1]", "value": "no adverse effects"},
      {"measurement": "PD50", "setting": "Candida albicans", "value": "<0.10", "unit": "mg/kg"}
    ]}
  ]
}
